Literature values, collected in patent US20140371717A1, “DRUG DELIVERY MEDICAL DEVICE” (Micell Technologies, Inc., priority 2011, published 2014).
Values belong to the molecule of their own block, whether it stands above or below them.

Assays:
FKBP12 = FKBP12 (Homo sapiens, UniProt P62942)
[1] = value in μM

Chain of FKBP12 (P62942 whole entry, species assumed): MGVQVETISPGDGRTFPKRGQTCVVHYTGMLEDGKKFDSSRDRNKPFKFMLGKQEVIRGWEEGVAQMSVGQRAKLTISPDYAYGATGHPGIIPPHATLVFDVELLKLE

Structure (SMILES): C=CC[C@@H]1/C=C(\C)C[C@H](C)C[C@H](OC)[C@H]2O[C@@](O)(C(=O)C(=O)N3CCCC[C@H]3C(=O)O[C@H](/C(C)=C/[C@@H]3CC[C@@H](O)[C@H](OC)C3)[C@H](C)[C@@H](O)CC1=O)[C@H](C)C[C@@H]2OC [Tacrolimus]
- FKBP12 binding (FKBP12): 0.2 to 0.4 nM

Structure (SMILES): CO[C@H]1C[C@@H]2CC[C@@H](C)[C@@](O)(O2)C(=O)C(=O)N2CCCC[C@H]2C(=O)O[C@H]([C@H](C)C[C@@H]2CC[C@@H](OCCO)[C@H](OC)C2)CC(=O)[C@H](C)/C=C(\C)[C@@H](O)[C@@H](OC)C(=O)[C@H](C)C[C@H](C)/C=C/C=C/C=C/1C [Everolimus, 40-O-(2-Hydroxyethyl)rapamycin]
- FKBP12 binding (FKBP12): 1.8 to 2.6 nM

Structure (SMILES): CC[C@@H]1/C=C(\C)C[C@H](C)C[C@H](OC)[C@H]2O[C@@](O)(C(=O)C(=O)N3CCCC[C@H]3C(=O)O[C@H](/C(C)=C/[C@@H]3CC[C@H](Cl)[C@H](OC)C3)[C@H](C)[C@@H](O)CC1=O)[C@H](C)C[C@@H]2OC [Pimecrolimus]
- FKBP12 binding (nM) (FKBP12): about 1.2 nM
- Antiproliferative potency (nM) [1]: about 1 μM

Second part, the molecule after the results:

- FKBP12 binding (nM) (FKBP12): about the same as Sirolimus
Structure (SMILES): CO[C@H]1C[C@@H]2CC[C@@H](C)[C@@](O)(O2)C(=O)C(=O)N2CCCC[C@H]2C(=O)O[C@H]([C@H](C)C[C@@H]2CC[C@@H](OC(=O)C(C)(CO)CO)[C@H](OC)C2)CC(=O)[C@H](C)/C=C(\C)[C@@H](O)[C@@H](OC)C(=O)[C@H](C)C[C@H](C)/C=C/C=C/C=C/1C [Temsirolimus, 42-[3-hydroxy-2-(hydroxymethyl)-2-methylpropanoate]rapamycin]

- FKBP12 binding (FKBP12): 2.0 to 3.2 nM
Structure (SMILES): CO[C@H]1C[C@@H]2CC[C@@H](C)[C@@](O)(O2)C(=O)C(=O)N2CCCC[C@H]2C(=O)O[C@H]([C@H](C)C[C@@H]2CC[C@H](n3cnnn3)[C@H](OC)C2)CC(=O)[C@H](C)/C=C(\C)[C@@H](O)[C@@H](OC)C(=O)[C@H](C)C[C@H](C)/C=C/C=C/C=C/1C [Zotarolimus]
